These results are taken from patent US20260265244A1, “HETEROCYCLIC COMPOUNDS AS STING ANTAGONISTS” (Boehringer Ingelheim International GmbH, priority 2022, published 2026).

Assay [1] concerns the target T1, cGAMP binding domain of wild-type (GRR) human STING, residues 155-341 (Homo sapiens, UniProt Q86WV6, H232R).
T1 construct: His-TEV-hSTING (WT); TEV protease cleavage site (N); made in house; host or cells: E. coli BL21 DE3
Description: Increase of stability of STING protein against thermal denaturation, Differential Scanning Fluorimetry (DSF). As for the experimental part: Dye fluorescence is quenched in aqueous environment and increases upon association of the dye with the hydrophobic parts of the unfolding protein. […] The inflection point of the curve represents the “melting” temperature of the protein (Tm) which is calculated numerically using the Boltzmann equation.
Method: The thermal stability of the STING protein was measured using a specific expression construct of the cGAMP binding domain of wild-type (GRR) human STING comprising residues 155-341 and a N-terminal 8×His-tag (SEQ ID NO: 3) in assay buffer containing 20 mM Tris, 150 mM NaCl at pH7.5.
The assay uses Hard-Shell® PCR Plates 384-Well CLR/WHT (Catalog #HSP3805, BIO-RAD), Microseal® ‘B’ Adhesive Seals for PCR Plates (Catalog #MSB-1001, BIO-RAD) and was run on a CFX384 Real-Time System (Bio-Rad).
A DMSO stock solution of SYPRO orange (SIGMA S5692-500UL) was prepared.
Compound stock solutions (10 mM in DMSO) were diluted 1:2 in DMSO to an intermediate compound concentration of 5 mM and then further diluted 1:40 in assay buffer resulting in a compound concentration of 125 μM and 2.5% DMSO.
Fluorescent dye stock solution (5000×SYPRO Orange) was then mixed with target protein and buffer to a concentration of 15 uM Protein and 25×SYPRO Orange. 2 ul of this protein-dye-mixture was added to 8 ul compound solution. Final volume was 10 uL. 3-6 well positions were used as negative control (protein with 2% DMSO). The plates were prepared for duplicate measurement and centrifuged for 2 min at 1000 g. In the measurement, 160 cycles of 0.5° C. were used (temperature ramp 15 s/cycle, 15° C. to 95° C.).
Final Assay concentrations for compound characterization were as follows: 100 uM compound, 3 uM target protein, 5×SYPRO Orange, 2% DMSO in 10 ul. All dispensing steps were performed using a HamiltonStar pipetting robot (Hamilton).
Dissociation curves were processed in Bio-Rad CFX Manager. Peak type was set to “negative”. Compound codes for screen were assigned in the plate layout.
Two replicates of TM measurements were averaged, and the standard deviation was calculated. In cases of SD>1.5° C. the measurement was repeated.
The melting point (Tm) obtained for STING protein alone was subtracted from T obtained for protein incubated with ligand to generate ΔTm values.
Protein production and purification: The protein used for the biophysical experiments was a recombinant human STING protein comprising its cytosolic ectodomain. A codon optimized DNA sequence (for expression in Escherichia coli) encoding amino acid residues 155 to 341 (Swiss Prot Q86WV6) of human STING (WT) was synthesized by GeneArt (Regensburg, Germany) and inserted into a pET17b E. coli expression vector. The protein construct encodes an N-terminal 8×His-tag (SEQ ID NO: 3) followed by tobacco etch virus protease (TEV) cleavage site and the above STING gene sequence. The resulting protein sequence for the used STING variant is listed below:
For expression of recombinant human STING above construct was transformed into E. coli BL21 DE3 strain and grown in shake flasks in LB-medium at 37° C. Expression was induced by addition of isopropyl β-D-1-thiogalactopyranoside to a final concentration of 1 mM and cultures shaken overnight. Cell pellets were centrifuged and stored at −70° C. until further use. Protein was purified by cell thawing in lysis buffer (20 mM TRIS-HCl, pH 8, 300 mM NaCl, 2 mM mercaptoethanol, 20 mM imidazole, Complete Protease Inhibitor (Roche) and DNase (Roche)), followed by metal affinity purification using Ni-NTA resins and elution buffer consisting of 20 mM TRIS-HCl, pH 8, 300 mM NaCl, 2 mM mercaptoethanol, 300 mM imidazole and size exclusion chromatography in running buffer (20 mM TRIS-HCl, pH 8, 100 mM NaCl, 2 mM DTT). The peak fraction was collected and concentrated to 2.5 mg/mL.

In another assay the target is T2, human STING WT (R232) (Homo sapiens, UniProt Q86WV6, H232R).
T2 construct: purchased Cisbio 64BDSTGPEG
Description: Human STING HTRF binding assay (competitive, Cisbio 64BDSTGPEG). As for the experimental part:
Binders to human STING WT (R232) were identified using a competitive HTRF assay format (Cisbio 64BDSTGPEG), which uses d2-labeled STING ligand, a 6His (SEQ ID NO: 2) tagged human STING protein, and an anti 6His (SEQ ID NO: 2) Cryptate-labeled antibody. Compounds compete with the STING ligand-d2 and thereby prevents FRET from occurring, which can be measured by an EnVision™ reader (PerkinElmer).
Assay method: Compounds were delivered as 10 mM DMSO solution, serially diluted by an Agilent Bravo Workstation and transferred to the 384 well assay plate (Perkin Elmer #6005359) using a Cybiwell dispenser. Typically, 8 concentrations were used with the highest concentration at 10 μM or 1 μM in the final assay volume followed by ~1:5 dilution steps. DMSO concentration was set to 1% in the final assay volume. The 384 well assay plate contained 20 test compounds and DMSO in column 23 and 24. A cGAMP standard dilution row was prepared according to the manufacturer and transferred to each assay plate. After transfer of compound solution or dilution buffer for negative (high) and positive (low) controls, 5 μl of the human STING protein (cyclic binding domain (residues 138-379) of the WT R232 human version, fused to a 6 His tag (SEQ ID NO: 2) at the Nter part; 1:50 dilution in detection buffer) were dispensed to all wells except of the positive control, which received detection buffer only. Plates were the centrifuged for 20 sec at 1000 rpm. After that, 10 μl of Anti-6His-Cryptate antibody/Sting ligand-d2 mix was added to all wells using a Multidrop combi dispenser, followed by another sec/1000 rpm centrifugation step. After an incubation of the plates for 180 min at room temperature, […] at […] (HTRF ratio) was measured using an Envison Reader (PerkinElmer).
Data evaluation and calculation: For data evaluation and calculation, HTRF ratios were calibrated using the cGAMP standard curve. After that, the measurement of the low control was set as 0% control and the measurement of the high control was set as 100% control. The IC50 values were calculated using the standard 4 parameter logistic regression formula. Calculation: [y=(a−d)/(1+(x/c)^b)+d], a=low value, d=high value; x=conc M; c=IC50 M; b=slope;
(In general: Time-resolved FRET reads energy transfer from a long-lived donor to a nearby acceptor.)

T1 sequence (Q86WV6 with tags, fused parts or gaps H232R): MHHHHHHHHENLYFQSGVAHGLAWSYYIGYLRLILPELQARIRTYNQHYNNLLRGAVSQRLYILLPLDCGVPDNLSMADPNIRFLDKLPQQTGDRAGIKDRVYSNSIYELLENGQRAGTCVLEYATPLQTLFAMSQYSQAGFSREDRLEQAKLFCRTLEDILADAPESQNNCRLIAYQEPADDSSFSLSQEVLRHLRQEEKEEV
T2 sequence (Q86WV6 138-379 H232R): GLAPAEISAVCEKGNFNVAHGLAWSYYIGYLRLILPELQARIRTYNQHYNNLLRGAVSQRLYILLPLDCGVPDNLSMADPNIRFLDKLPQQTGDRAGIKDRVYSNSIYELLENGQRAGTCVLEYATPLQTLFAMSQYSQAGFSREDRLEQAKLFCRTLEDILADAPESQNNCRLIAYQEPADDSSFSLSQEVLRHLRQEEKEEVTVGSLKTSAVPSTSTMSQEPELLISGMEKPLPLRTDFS

For orientation: IC50 means the concentration needed to halve the response being measured. `Cc1c(C(C)C)c(-c2cccc3nn(C[C@H](O)c4ccccc4)cc23)nn1-c1cc2cn(C)nc2[n+]([O-])c1C1CC1` [Example 50, 6-cyclopropyl-5-(3-{2-[(2R)-2-hydroxy-2-phenylethyl]-2H-indazol-4-yl}-5-methyl-4-(propan-2-yl)-1H-pyrazol-1-yl)-2-methyl-2H-pyrazolo[3,4-b]pyridin-7-ium-7-olate] yielded a DSF in assay [1] of 26 K. Besides, on human STING WT (R232), the IC50 is 16.3 nM.

`Cn1cc2cc(-c3nc(-c4cccc5nn(C[C@H](O)c6ccc(OCC7CCOCC7)cc6)cc45)c(C4CC4)n3C)c(C3CC3)nc2n1` [Example 68] showed a DSF in assay [1] of 28 K. The same molecule displayed a half-inhibitory concentration (IC50) on human STING WT (R232) of 17.7 nM.

Molecule `COCc1nc2nn(C)cc2cc1-n1nc(-c2cccc3nn(C[C@H](O)c4ccccc4)cc23)c(C(C)C)c1C` [Example 17, (1R)-2-(4-{1-[6-(methoxymethyl)-2-methyl-2H-pyrazolo[3,4-b]pyridin-5-yl]-5-methyl-4-(propan-2-yl)-1H-pyrazol-3-yl}-2H-indazol-2-yl)-1-phenylethan-1-ol] gave a DSF in assay [1] of 27 K. At human STING WT (R232), this molecule displayed an IC50 of 1.4 nM.

In the case of `Cc1nc2nn(CC#N)cc2cc1-n1nc(-c2cccc3nn(C[C@H](O)c4ccccc4)cc23)c(C(C)C)c1C` [Example 98, 2-[5-(3-{2-[(2R)-2-hydroxy-2-phenylethyl]-2H-indazol-4-yl}-5-methyl-4-(propan-2-yl)-1H-pyrazol-1-yl)-6-methyl-2H-pyrazolo[3,4-b]pyridin-2-yl]acetonitrile], the DSF in assay [1] was 29 K. In addition, the IC50 at human STING WT (R232) is 3.1 nM.

For the molecule `Cn1c(-c2cc3cn(CCCN4CCCC4=O)nc3nc2C2CC2)nc(-c2cccc3nn(C[C@H](O)c4ccccc4)cc23)c1C1CC1` [Example 28, 1-{3-[6-cyclopropyl-5-(5-cyclopropyl-4-{2-[(2R)-2-hydroxy-2-phenylethyl]-2H-indazol-4-yl}-1-methyl-1H-imidazol-2-yl)-2H-pyrazolo[3,4-b]pyridin-2-yl]propyl}pyrrolidin-2-one], in assay [1], the DSF was 31 K. On human STING WT (R232), this molecule showed an IC50 of 8.4 nM.

As to `Cc1c(C(C)C)c(-c2cccc3nn(C[C@H](O)c4ccccc4)cc23)nn1-c1cc2cn(C)nc2nc1C(C)O` (stereo partly drawn) [Example 19, (1R)-2-(4-{1-[6-(1-hydroxyethyl)-2-methyl-2H-pyrazolo[3,4-b]pyridin-5-yl]-5-methyl-4-(propan-2-yl)-1H-pyrazol-3-yl}-2H-indazol-2-yl)-1-phenylethan-1-ol], the DSF in assay [1] stood at 29 K. Further, the IC50 at human STING WT (R232) came to 16.1 nM.

In turn, `COc1ccc(Cn2cc3cc(-c4nc(-c5cccc6nn(C[C@H](O)c7ccccc7)cc56)c(C5CC5)n4C)c(C4CC4)nc3n2)cc1` [Example 9, (1R)-2-[4-(5-cyclopropyl-2-{6-cyclopropyl-2-[(4-methoxyphenyl)methyl]-2H-pyrazolo[3,4-b]pyridin-5-yl}-1-methyl-1H-imidazol-4-yl)-2H-indazol-2-yl]-1-phenylethan-1-ol] registered a DSF in assay [1] of 33 K. Besides, on human STING WT (R232), the IC50 is 14.1 nM.

`CCO[C@@H](Cn1cc2c(-c3nn(-c4cc5cn(C)nc5nc4C)c(C)c3C(C)C)cccc2n1)c1ccccc1` [Example 30, 4-(1-{2,6-dimethyl-2H-pyrazolo[3,4-b]pyridin-5-yl}-5-methyl-4-(propan-2-yl)-1H-pyrazol-3-yl)-2-[(2R)-2-ethoxy-2-phenylethyl]-2H-indazole] had a DSF in assay [1] of 25 K. The molecule also came in with an IC50 on human STING WT (R232) of 18.2 nM.

Molecule `Cc1nc2nn(CCCCO)cc2cc1-n1nc(-c2cccc3nn(C[C@H](O)c4ccccc4)cc23)c(C(C)C)c1C` [Example 12, 4-[5-(3-{2-[(2R)-2-hydroxy-2-phenylethyl]-2H-indazol-4-yl}-5-methyl-4-(propan-2-yl)-1H-pyrazol-1-yl)-6-methyl-2H-pyrazolo[3,4-b]pyridin-2-yl]butan-1-ol] had a DSF in assay [1] of 29 K. The molecule also yielded an IC50 at human STING WT (R232) of 4.4 nM.
